Read-outs that look alike come from different tables or passages of the source.
Experiments:
[1] = tested on: Key Grass and Sedge Weeds as well as Grass Crops; assay: Post-emergent Test II herbicidal activity (Table 6); type: in vivo; details: post-emergence, 336 h; for pest or weed control at 70 g/ha: 70 g ai/ha; for pest or weed control at 140 g/ha: 140 g ai/ha
In short: (§1)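 Spray rates: a highest rate plus ½×, ¼×, ⅛×, 1/16×, all delivered at 187 L/ha to plants at the first–second true leaf stage. Readout is a visual percent injury score at 14 d, where 100 means complete kill.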

[2] = tested on: Key Broadleaf Weed and Crop Species; assay: Post-emergent Test II herbicidal activity (Table 5); type: in vivo; details: post-emergence, 336 h, 14 days after application; for pest or weed control at 70 g/ha: application rate 70 g ai/ha; for pest or weed control at 140 g/ha: application rate 140 g ai/ha
In short: as §1

[3] = CYPES: yellow nutsedge (Cyperus esculentus), read-out: Visual Growth Reduction (%) 14 Days After Application, CYPES
[4] = DIGSA: crabgrass (Digitaria sanguinalis), read-out: Visual Growth Reduction (%) 14 Days After Application, DIGSA
[5] = ECHCG: barnyardgrass (Echinochloa crus-galli), read-out: Visual Growth Reduction (%) 14 Days After Application, ECHCG
[6] = ORYSA: rice (Oryza sativa), crop, read-out: Visual Growth Reduction (%) 14 Days After Application, ORYSA
[7] = SETFA: giant foxtail (Setaria faberi), read-out: Visual Growth Reduction (%) 14 Days After Application, SETFA
[8] = SORVU: grain sorghum (Sorghum vulgare), read-out: Visual Growth Reduction (%) 14 Days After Application, SORVU
[9] = TRZSS (wheat, Triticum aestivum), crop, read-out: Visual Growth Reduction (%) 14 Days After Application, TRZSS
[10] = ZEAMX: maize, corn (Zea mays), crop, read-out: Visual Growth Reduction (%) 14 Days After Application, ZEAMX
[11] = ABUTH: velvetleaf (Abutilon theophrasti), read-out: Visual Growth Reduction (%) 14 Days After Application, ABUTH
[12] = AMARE: redroot pigweed (Amaranthus retroflexus), read-out: Visual Growth Reduction (%) 14 Days After Application, AMARE
[13] = BRSNN: oilseed-rape, canola (Brassica napus), read-out: Visual Growth Reduction (%) 14 Days After Application, BRSNN
[14] = CHEAL: lambsquarters (Chenopodium album), read-out: Visual Growth Reduction (%) 14 Days After Application, CHEAL
[15] = EPHHL: wild poinsettia (Euphorbia heterophylla), read-out: Visual Growth Reduction (%) 14 Days After Application, EPHHL
[16] = HELAN: sunflower (Helianthus annuus), read-out: Visual Growth Reduction (%) 14 Days After Application, HELAN
[17] = VIOTR: wild pansy (Viola tricolor), read-out: Visual Growth Reduction (%) 14 Days After Application, VIOTR

COC(=O)c1nc(-c2ccc(Br)cc2)cc(N)c1Cl [Compound 67]
45 to 59%: pest or weed control at 140 g/ha [1, 10]
95 to 100%: pest or weed control at 70 g/ha [1, 3] | pest or weed control at 140 g/ha [1, 3] | pest or weed control at 140 g/ha [1, 5] | pest or weed control at 70 g/ha [2, 11] | pest or weed control at 140 g/ha [2, 11] | pest or weed control at 70 g/ha [2, 12] | pest or weed control at 140 g/ha [2, 12] | pest or weed control at 70 g/ha [2, 14] | pest or weed control at 140 g/ha [2, 14] | pest or weed control at 70 g/ha [2, 15] | pest or weed control at 140 g/ha [2, 15] | pest or weed control at 140 g/ha [2, 16]
75 to 84%: pest or weed control at 140 g/ha [1, 4]
85 to 94%: pest or weed control at 70 g/ha [1, 5] | pest or weed control at 70 g/ha [1, 8] | pest or weed control at 140 g/ha [1, 8] | pest or weed control at 70 g/ha [2, 16]
60 to 74%: pest or weed control at 70 g/ha [1, 4] | pest or weed control at 140 g/ha [2, 13]
0 to 29%: pest or weed control at 70 g/ha [1, 6] | pest or weed control at 140 g/ha [1, 6] | pest or weed control at 70 g/ha [1, 7] | pest or weed control at 140 g/ha [1, 7] | pest or weed control at 70 g/ha [1, 9] | pest or weed control at 140 g/ha [1, 9] | pest or weed control at 70 g/ha [1, 10] | pest or weed control at 70 g/ha [2, 13] | pest or weed control at 70 g/ha [2, 17] | pest or weed control at 140 g/ha [2, 17]

From patent US9113629B2, “4-amino-6-(4-substituted-phenyl)-picolinates and 6-amino-2-(4-substituted-phenyl)-pyrimidine-4-carboxylates and their use as herbicides” (DOW AGROSCIENCES LLC, priority 2013, dated 2015)
